Biological target: T1, human GLUT1 (Homo sapiens, UniProt P11166)
T1 construct: expressed in transfected cells
T1 sequence (P11166 1-492): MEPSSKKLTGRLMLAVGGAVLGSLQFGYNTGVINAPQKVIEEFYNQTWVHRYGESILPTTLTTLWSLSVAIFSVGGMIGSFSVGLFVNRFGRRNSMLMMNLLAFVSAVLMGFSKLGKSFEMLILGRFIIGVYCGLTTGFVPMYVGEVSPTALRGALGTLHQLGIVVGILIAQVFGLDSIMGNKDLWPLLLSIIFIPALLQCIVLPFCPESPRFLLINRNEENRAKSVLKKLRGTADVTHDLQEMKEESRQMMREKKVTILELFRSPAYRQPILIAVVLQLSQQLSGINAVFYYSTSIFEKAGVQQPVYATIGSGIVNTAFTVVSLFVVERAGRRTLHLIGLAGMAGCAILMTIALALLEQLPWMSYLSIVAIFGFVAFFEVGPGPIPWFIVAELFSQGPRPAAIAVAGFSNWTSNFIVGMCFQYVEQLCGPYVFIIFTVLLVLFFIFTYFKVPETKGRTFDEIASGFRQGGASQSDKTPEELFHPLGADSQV
Test: [3H]-deoxy-D-glucose uptake assay, GLUT1
Format: cell-based
Settings: [3H]-deoxy-D-glucose uptake in HEK293 cells stably expressing human GLUT1
Protocol: HEK293 cells were engineered to stably express either human GLUT1, GLUT2, GLUt3 or GLUT4 by transfection with the pReceiver-Lv105 plasmid, containing either hGLUT1, hGLUT2, hGLUT3, or hGLUT4 gene constructs with lipofectamine 2000, hGLUT1- hGLUT2- hGLUT3- or hGLUT4-overexpressing polyclonal populations were isolated under purinomycin selective pressure (1 μg/ml) and maintained in Dulbecco's modified Eagle's medium supplemented with 1 μg/ml purinomycin+10% foetal bovine serum (FBS).
60,000 cells per well were seeded overnight into poly-D-lysine coasted 96-well plates. […] 90 μl of test compounds were added in glucose-free uptake buffer and cells were incubated at 37° C. for 30 min.
Cells were then washed twice with ice-cold PBS and 100 μl of Microscint-20 was added per well. Glucose uptake was quantified with a scintillation counter. The half maximal inhibitory concentration (IC50) (a measure of the effectiveness of the test compound in inhibiting glucose uptake) was determined.

SMILES | GLUT1 pIC50
COCCNC(=O)CCc1c(-c2ccc([N+](=O)[O-])cc2)nc2ccc(-c3ccccc3)cn12 [Compound 17] | +− (pIC50 < 4.00)
COCC(=O)N1CCN(Cc2c(-c3ccc(Cl)cc3)nc3ccc([N+](=O)[O-])cn23)CC1 [Compound 275] | ++ (pIC50 5.00-5.99)
N#Cc1cccc(-c2ccc3nc(-c4ccc(Cl)cc4)c(CN4CCOCC4)n3c2)c1 [Compound 92] | +− (pIC50 < 4.00)
O=C(c1cccc(F)c1)N1CCN(Cc2c(-c3ccc(Cl)cc3)nc3ccc(C4CC4)cn23)CC1 [Compound 178] | +++ (pIC50 ≧ 6.00)
O=C1CCCN1c1ccc2nc(-c3ccc(Cl)cc3)c(CN3CCOCC3)n2c1 [Compound 162] | + (pIC50 4.00-4.99)
COc1cccc(-c2nc3ccc(-c4ccccc4)cn3c2CN2CCOCC2)c1 [Compound 102] | ++ (pIC50 5.00-5.99)
Clc1ccc(-c2nc3ccc(Br)cn3c2CN2CCOCC2)cc1 [Compound 124] | + (pIC50 4.00-4.99)
COc1cccc(-c2nc3ccc(Br)cn3c2CN2CCN(C(=O)C3CCC3)CC2)c1 [Compound 205] | ++ (pIC50 5.00-5.99)
Cc1ccc(-c2nc3ccc(-c4ccccc4)cn3c2CN2CCOCC2)cc1 [Compound 157] | ++ (pIC50 5.00-5.99)
CC(C)CC(=O)N1CCN(Cc2c(-c3cccc([N+](=O)[O-])c3)nc3ccc(-c4ccccc4)cn23)CC1 [Compound 60] | + (pIC50 4.00-4.99)
O=C(C1CCC1)N1CCN(Cc2c(-c3ccc(Cl)cc3)nc3ccc(-c4ccccc4F)cn23)CC1 [Compound 202] | +++ (pIC50 ≧ 6.00)
Fc1cc(Cl)ccc1-c1nc2ccc(-c3ccccc3)cn2c1CN1CCOCC1 [Compound 249] | ++ (pIC50 5.00-5.99)
O=C(c1ccncc1)N1CCN(Cc2c(-c3ccc(Cl)cc3)nc3ccc(C4CC4)cn23)CC1 [Compound 196] | +++ (pIC50 ≧ 6.00)
CN(C)Cc1c(-c2ccc(Cl)cc2)nc2ccc(-c3ccccc3)cn12 [Compound 97] | + (pIC50 4.00-4.99)
Cc1ccccc1-c1ccc2nc(-c3ccc(Cl)cc3)c(CN3CCOCC3)n2c1 [Compound 115] | +++ (pIC50 ≧ 6.00)
CCC(=O)N1CCN(Cc2c(-c3ccc(Cl)cc3)nc3ccc(C4CC4)cn23)CC1 [Compound 195] | ++ (pIC50 5.00-5.99)
CC1CN(Cc2c(-c3ccccc3)nc3ccc(Cl)cn23)CC(C)O1 (stereo not drawn) [Compound 28] | ++ (pIC50 5.00-5.99)
O=C(C1COC1)N1CCN(Cc2c(-c3ccc(Cl)cc3)nc3cnc(C4CC4)cn23)CC1 [Compound 274] | +++ (pIC50 ≧ 6.00)

SMILES | GLUT1 pIC50
COc1cccc(-c2nc3ccc(-c4ccccc4F)cn3c2CN2CCN(C(=O)C3CCC3)CC2)c1 [Compound 189] | +++ (pIC50 ≧ 6.00)
c1ccc(-c2ccc3nc(-c4cccnc4)c(CN4CCOCC4)n3c2)cc1 [Compound 139] | + (pIC50 4.00-4.99)
Clc1ccc(-c2nc3ncc(-c4ccccc4)cn3c2CN2CCOCC2)cc1 [Compound 77] | +− (pIC50 < 4.00)
O=C(c1cnccn1)N1CCN(Cc2c(-c3ccc(Cl)cc3)nc3ccc(C4CC4)cn23)CC1 [Compound 263] | +++ (pIC50 ≧ 6.00)
COCC(=O)N1CCN(Cc2c(-c3ccc(Cl)cc3)nc3ccc(N)cn23)CC1 [Compound 280] | +− (pIC50 < 4.00)
NC(=O)c1ccccc1-c1ccc2nc(-c3ccc(Cl)cc3)c(CN3CCOCC3)n2c1 [Compound 94] | + (pIC50 4.00-4.99)
Clc1ccc(-c2nc3ccc(C4CC4)cn3c2CN2CCOCC2)cc1 [Compound 87] | ++ (pIC50 5.00-5.99)
c1ccc(-c2ccc3nc(-c4ccccc4)c(CN4CCOCC4)n3c2)cc1 [Compound 103] | + (pIC50 4.00-4.99)
Clc1ccc(-c2nc3ccc(C4=CCCC4)cn3c2CN2CCOCC2)cc1 [Compound 177] | + (pIC50 4.00-4.99)
CC(C)C(=O)N1CCN(Cc2c(-c3cccc([N+](=O)[O-])c3)nc3ccc(-c4ccccc4)cn23)CC1 [Compound 55] | ++ (pIC50 5.00-5.99)
N#Cc1ccccc1-c1ccc2nc(-c3ccc(Cl)cc3)c(CN3CCN(C(=O)C4CCC4)CC3)n2c1 [Compound 213] | +++ (pIC50 ≧ 6.00)
Clc1ccc(-c2nc3ccc(-c4ccccc4)cn3c2CNC2CCOCC2)cc1 [Compound 188] | ++ (pIC50 5.00-5.99)
CC(C)(C)CC(=O)N1CCN(Cc2c(-c3cccc([N+](=O)[O-])c3)nc3ccc(-c4ccccc4)cn23)CC1 [Compound 58] | + (pIC50 4.00-4.99)
COc1cccc(-c2nc3ccc(-c4ccccc4C(N)=O)cn3c2CN2CCN(C(=O)C3CCC3)CC2)c1 [Compound 192] | ++ (pIC50 5.00-5.99)
COc1ccc(-c2nc3ccc(-c4ccccc4)cn3c2CN2CCOCC2)cc1 [Compound 101] | ++ (pIC50 5.00-5.99)
Cc1ccc(-c2cn3cc(-c4ccccc4)ccc3n2)cc1 [Compound 11] | + (pIC50 4.00-4.99)
Clc1ccccc1-c1nc2ccc(-c3ccccc3)cn2c1CN1CCOCC1 [Compound 105] | ++ (pIC50 5.00-5.99)

Further lines, results first:

GLUT1 pIC50 | SMILES
+++ (pIC50 ≧ 6.00) | COc1ccccc1C(=O)N1CCN(Cc2c(-c3ccc(Cl)cc3)nc3ccc(-c4ccccc4)cn23)CC1 [Compound 128]
++ (pIC50 5.00-5.99) | Clc1ccc(-c2nc3ccc(-c4ccccc4)cn3c2CN2CCOCC2)cc1 [Compound 1]
+++ (pIC50 ≧ 6.00) | CC(C)CC(=O)N1CCN(Cc2c(-c3ccc(Cl)cc3)nc3ccc(-c4ccccc4)cn23)CC1 [Compound 43]
+++ (pIC50 ≧ 6.00) | N#Cc1cccc(C(=O)N2CCN(Cc3c(-c4ccc(Cl)cc4)nc4ccc(-c5ccccc5)cn34)CC2)c1 [Compound 193]
+++ (pIC50 ≧ 6.00) | CC(=O)N1CCCN(Cc2c(-c3ccc(Cl)cc3)nc3ccc(-c4ccccc4)cn23)CC1 [Compound 231]
++ (pIC50 5.00-5.99) | COCC(=O)N1CCN(Cc2c(-c3cccc(OC)c3)nc3ccc(-c4ccccc4)cn23)CC1 [Compound 57]
+ (pIC50 4.00-4.99) | COc1cccc(-c2nc3ccc(-c4ccccc4)cn3c2CN2CCN(C(=O)c3ccccc3Cl)CC2)c1 [Compound 39]
+ (pIC50 4.00-4.99) | O=C(c1ccccc1Cl)N1CCN(Cc2c(-c3ccc(Cl)cc3)nc3ccc(-c4ccccc4)cn23)CC1 [Compound 64]
++ (pIC50 5.00-5.99) | CC(C)(C)NC(=O)N1CCN(Cc2c(-c3ccc(Cl)cc3)nc3ccc(-c4ccccc4)cn23)CC1 [Compound 41]
++ (pIC50 5.00-5.99) | CC(C)(C)CC(=O)N1CCN(Cc2c(-c3ccc([N+](=O)[O-])cc3)nc3ccc(-c4ccccc4)cn23)CC1 [Compound 38]
++ (pIC50 5.00-5.99) | CC(C)(C)CC(=O)N1CCN(Cc2c(-c3ccc(Cl)cc3)nc3ccc(-c4ccccc4)cn23)CC1 [Compound 46]
+++ (pIC50 ≧ 6.00) | COc1cccc(-c2nc3ccc(-c4ccccc4)cn3c2CN2CCN(C(=O)c3ccc(F)cc3)CC2)c1 [Compound 49]
++ (pIC50 5.00-5.99) | COc1cccc(-c2nc3ccc(-c4ccccc4)cn3c2CN2CCN(C(=O)c3ccco3)CC2)c1 [Compound 51]
+++ (pIC50 ≧ 6.00) | Cc1ccc(C(=O)N2CCN(Cc3c(-c4ccc(Cl)cc4)nc4ccc(-c5ccccc5)cn34)CC2)cc1 [Compound 69]
++ (pIC50 5.00-5.99) | O=C(c1cccc(Cl)c1)N1CCN(Cc2c(-c3ccc(Cl)cc3)nc3ccc(-c4ccccc4)cn23)CC1 [Compound 185]
+++ (pIC50 ≧ 6.00) | O=C(C1CC1)N1CCN(Cc2c(-c3ccc(Cl)cc3)nc3ccc(-c4ccccc4)cn23)CC1 [Compound 133]
+++ (pIC50 ≧ 6.00) | O=C(C1CCOCC1)N1CCN(Cc2c(-c3ccc(Cl)cc3)nc3ccc(-c4ccccc4)cn23)CC1 [Compound 200]
+++ (pIC50 ≧ 6.00) | O=C(c1ccc(Cl)cc1)N1CCN(Cc2c(-c3ccc(Cl)cc3)nc3ccc(-c4ccccc4)cn23)CC1 [Compound 183]
+ (pIC50 4.00-4.99) | CN1CCN(Cc2c(-c3ccc(Cl)cc3)nc3ccc(-c4ccccc4)cn23)CC1 [Compound 125]

— patent publication US20160120863A1, “SLC2A TRANSPORTER INHIBITORS” (IOMET PHARMA LTD., priority 2013, published 2016)
